Patent US7122657B2, “UDP-glucose aglycon-glucosytransferase” (priority 1999, dated 2006)

Key:
[1] = system: glucosyltransferase activity of desalted crude etiolated Sorghum seedling extract; test: Substrate specificity of desalted crude etiolated Sorghum seedling extract (TLC, 14C-UDP-glucose); format: biochemical, Sorghum bicolor; set-up: key: ▪: indicate that a radiolabelled product was visualised after incubation with the respective aglycone substrate; □: indicate that no radiolablled products could be detected under the experimental conditions employed; settings: aglycone substrate
Method: (§1) Generally a 20 μl reaction mixture including • 100 mM Tris HCl (pH 7.9), • 1–5 μM ^14C-UDP-glucose (11.0 GBq mmol^−1, Amersham LIFE SCIENCE), • 0–300 μM UDP-glucose, • 0–20 mM p-hydroxymandelonitrile (dissolved in water, freshly prepared), • 25 mM γ-gluconolactone, • 0–1 mg BSA and • 0.5–10 μl of protein preparation, is incubated at 30° C. between 2 minutes and 2 hours. Thereafter the reaction is terminated by the addition of 1/10 of the reaction volume of 10% acetic acid. The same assay conditions are used to determine the glucosylation of mandelonitrile, benzoic acid, benzylalcohol, geraniol and a number of other aglycons.
(§2) For TLC analysis the reaction mixture is applied to Silica Gel 60 F254 plates (Merck), dried and eluted in a solvent containing ethyl acetate:acetone:dichloromethane:methanol:[…] (40:30:12:10:8, v/v). Plates are dried for one hour at room temperature and exposed to storage phosphorlmaging plates (Molecular Dynamics) prior to scanning on a Storm 860 Phosphorimager (Molecular Dynamics).
(§3) Substrate Specificity of Recombinant sbHMNGT Compared to Desalted Crude Etiolated Sorghum Seedling Extract
(§4) Glucosyltransterase activity was determined by TLC using ^14C-UDP-glucose. Filled boxes in Table 1 below (▪) indicate that a radiolabelled product was visualised after incubation with the respective aglycone substrate. Empty boxes (□) indicate that no radiolablled products could be detected under the experimental conditions employed. Figures in brackets indicate the relative Vmax for each aglycon with calculated standard deviations.

[2] = target: T1, recombinant sbHMNGT (UDP-glucose:p-hydroxymandelonitrile-glucosyltransferase) (Sorghum bicolor, UniProt Q9SBL1); test: Substrate specificity of recombinant sbHMNGT (TLC, 14C-UDP-glucose); format: biochemical; set-up: key to ACTIVITY Recombinant sbHMNGT (radiolabelled glucoside product): ▪: indicate that a radiolabelled product was visualised after incubation with the respective aglycone substrate; □: indicate that no radiolablled products could be detected under the experimental conditions employed; settings: for ACTIVITY Recombinant sbHMNGT (radiolabelled glucoside product): 1.25 mM aglycone, 100 ng recombinant sbHMNGT, 20 min at 30° C., TLC
T1 construct: are used to amplify a 1500 bp full-length sbHMNGT insert by PCR; made in house; host or cells: E. coli JM109, vector pSP19g10L
Method: as §1
To determine the substrate specificity of recombinant sbHMNGT incubation lasts for 20 min at 30° C. and the general protocol above is adapted to include • 1.25 mM aglycone (dissolved in ethanol except for flavonoids which are dissolved in ethylene glycol monoether), • 1.25 μM ^14C-UDP-glucose, • 12.5 μM UDP-glucose, • 100 ng recombinant sbHMNGT, and • 4 μg BSA.
as §2, §3, §4

[3] = target: T2, sbHMNGT (Sorghum bicolor, UniProt Q9SBL1); test: Quantitative determination of the activity of recombinant sbHMNGT (Vmax); format: biochemical; set-up: are used to amplify a 1500 bp full-length sbHMNGT insert by PCR; made in house; host or cells: E. coli JM109, vector pSP19g10L; settings: for relative Vmax with calculated standard deviations: relative to p-hydroxymandelonitrile, 1, 5 or 10 mM aglycone, 4 minutes at 30° C.
Method: as §1
Quantitative determination of the activity of recombinant sbHMNGT is carried out using 4 minutes incubation at 30° C. Analyses are carried out as for the determination of substrate specificity except that the reaction mixtures are composed as folows: • 1, 5 or 10 mM aglycone, • 5 μM ^14C-UDP-glucose, • 0.2 mM UDP-glucose, • 200 ng recombinant sbHMNGT, and • 24 μg BSA.
as §4

[4] = target: T2, sbHMNGT; test: sbHMNGT activity assay during purification (LSC); format: biochemical; set-up: from tissue; host or cells: etiolated Sorghum bicolor seedling shoots; ammonium sulphate, Q-sepharose and Reactive Yellow 3 fractions; settings: native sbHMNGT
Method: as §1
For analysis by liquid scintillation counting (LSC) reaction mixtures are extracted with 400 μl of ethyl acetate to separate glucosides from unincorporated ^14C-UDP-glucose. 2 ml of Ecoscint A (National Diagnostics, New Jersey, USA) are added to 250 μl of each ethyl acetate extract and analyzed using a Win Spectral 1414 (Wallac) liquid scintillation counter. Mandelonitrile is used as substrate to assay fractions generated by liquid chromatography.
Except where indicated all steps are carried out at 4° C. […] Furthermore, the absence of a hydroxyl group at the para-position of the benzene ring rules out the possibility of p-glucosyloxymandelonitrile synthesis, which would be indistinguishable from dhurrin using the LSC assay.

T2 sequence (Q9SBL1 whole entry): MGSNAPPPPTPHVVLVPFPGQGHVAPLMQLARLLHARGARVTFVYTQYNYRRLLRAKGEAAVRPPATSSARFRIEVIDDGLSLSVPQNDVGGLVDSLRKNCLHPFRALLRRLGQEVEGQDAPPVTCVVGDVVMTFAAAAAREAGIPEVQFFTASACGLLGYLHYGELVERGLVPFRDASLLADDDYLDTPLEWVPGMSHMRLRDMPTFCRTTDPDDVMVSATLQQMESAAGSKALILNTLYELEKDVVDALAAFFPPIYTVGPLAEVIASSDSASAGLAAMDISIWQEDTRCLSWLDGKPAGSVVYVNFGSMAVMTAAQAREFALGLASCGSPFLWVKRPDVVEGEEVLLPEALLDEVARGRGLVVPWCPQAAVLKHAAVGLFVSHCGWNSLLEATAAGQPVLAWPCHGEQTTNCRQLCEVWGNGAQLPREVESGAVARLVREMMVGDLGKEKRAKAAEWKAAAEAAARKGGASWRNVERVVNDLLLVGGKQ
T1 sequence (Q9SBL1 whole entry): as above

SMILES | ACTIVITY Crude Sorghum extract (radiolabelled glucoside product) [1] | ACTIVITY Recombinant sbHMNGT (radiolabelled glucoside product) [2] | ability of sbHMNGT to glucosylate the aglycon [2] | rate of glucosylation compared with the cyanohydrins [3] | relative Vmax with calculated standard deviations ([3]; recombinant sbHMNGT) | substrate quality compared with p-hydroxymandelonitrile [4] | Vmax ([3]; recombinant sbHMNGT)
CCCCCCO [1-hexanol] | ▪ | ▪ |  |  |  |  | 
O=c1c(O)c(-c2ccc(O)c(O)c2)oc2cc(O)cc(O)c12 [quercetin] | ▪ | □ |  |  |  |  | 
O=Cc1ccc(O)cc1 [p-hydroxybenzaldehyde] | ▪ | □ |  |  |  |  | 
O=C(O)C(O)c1ccc(O)cc1 (centres unmarked) [p-hydroxymandelic acid] | ▪ | □ |  |  |  |  | 
O=c1cc(-c2ccc(O)cc2)oc2cc(O)cc(O)c12 [apigenin] | ▪ | □ |  |  |  |  | 
COc1cc(C(=O)O)ccc1O [vanillic acid] | ▪ | ▪ | glucosylate |  |  |  | 
CC(C)(O)C#N [acetone cyanohydrin] | □ | □ |  |  |  |  | 
CC(C)=CCC/C(C)=C/CO [geraniol] | ▪ | ▪ | glucosylate | lower than those observed for the cyanohydrins | (11.0 ± 0.5%) |  | 
O=C(O)c1ccccc1 [benzoic acid] | ▪ | ▪ | glucosylate | lower than those observed for the cyanohydrins | (4.2 ± 0.8%) |  | 
COc1cccc(CO)c1O [2-hydroxy-3-methoxybenzlalcohol] | ▪ | ▪ | glucosylate |  |  |  | 
COc1cc(C=O)ccc1O [vanillin] | ▪ | ▪ | glucosylate |  |  |  | 
CC(C)=CCCC(C)CCO (centres unmarked) [p-citronellol] | ▪ | ▪ | glucosylate |  |  |  | 
N#CC(O)c1ccccc1 (centres unmarked) [mandelonitrile] | ▪ | ▪ |  |  | (77.8 ± 8.6%) | equally good substrate | 
CC(C)=CCC/C(C)=C\CO [nerol] | ▪ | ▪ | glucosylate |  |  |  | 
CC/C=C\CCO [cis-3-hexen-1-ol] | ▪ | ▪ |  |  |  |  | 
Oc1ccc(C=Cc2cc(O)cc(O)c2)cc1 [resveratrol] | ▪ | □ |  |  |  |  | 

SMILES | ACTIVITY Crude Sorghum extract (radiolabelled glucoside product) [1] | ACTIVITY Recombinant sbHMNGT (radiolabelled glucoside product) [2] | ability of sbHMNGT to glucosylate the aglycon [2] | rate of glucosylation compared with the cyanohydrins [3] | relative Vmax with calculated standard deviations ([3]; recombinant sbHMNGT) | substrate quality compared with p-hydroxymandelonitrile [4] | Vmax ([3]; recombinant sbHMNGT)
CCC=C(C)CCO [3-methyl-3-hexen-1-ol] | ▪ | ▪ |  |  |  |  | 
O=C(O)c1ccc(O)cc1 [p-hydroxybenzoic acid] | ▪ | □ |  |  |  |  | 
O=C1C[C@@H](c2ccc(O)cc2)Oc2cc(O)cc(O)c21 [naringenin] | ▪ | □ |  |  |  |  | 
O=C(O)/C=C/c1ccc(O)c(O)c1 [caffeic acid] | ▪ | □ |  |  |  |  | 
OCc1ccc(O)cc1 [p-hydroxybenzyl alcohol] | ▪ | ▪ |  |  |  |  | 
OCc1ccccc1 [benzyl alcohol] | ▪ | ▪ | glucosylate | lower than those observed for the cyanohydrins | (13.1 ± 2.1%) |  | 
Oc1ccc(O)cc1 [hydroquinone] | ▪ | □ |  |  |  |  | 
CCCC(C)=CCO [3-methyl-2-hexen-1-ol] | ▪ | ▪ |  |  |  |  | 
O=C(O)C=Cc1ccccc1O [2-hydroxy cinnamic acid] | ▪ | □ |  |  |  |  | 
COc1ccc(-c2coc3cc(O)cc(O)c3c2=O)cc1 [biochanin A] | ▪ | □ |  |  |  |  | 
O=C(O)c1ccccc1O [salicylic acid] | ▪ | □ |  |  |  |  | 
O=C(O)c1cc(O)ccc1O [gentisic acid] | □ | □ |  |  |  |  | 
CCC/C=C/CO [trans-2-hexen-1-ol] | ▪ | ▪ |  |  |  |  | 
C[C@H]1CC[C@]2(NC1)O[C@H]1C[C@H]3[C@@H]4CC[C@H]5C[C@@H](O)CC[C@]5(C)[C@H]4CC[C@]3(C)[C@H]1[C@@H]2C [tomatidine] | ▪ | □ |  |  |  |  | 
N#CC(O)c1ccc(O)cc1 (centres unmarked) [p-hydroxymandelonitrile] | ▪ | ▪ |  |  | (100 ± 7.2%) |  | 1500 mol of product/mol of sbHMNGT/sec
